Data on six molecules can be found in US4130559A, “Method for the preparation of 6-aminopenicillinic acid derivatives” (priority 1977, dated 1978).

Values after ≈ are worked out from the molar mass of the structure shown. Like-named read-outs stand apart in the source and are kept apart here. A value given as a limit tells only on which side of the number the result lay.

Series [1] concerns the target T1, staphylococc penicillinase (Staphylococcus aureus, UniProt P00807). The settings on record: cited from earlier work.
A short description of series [2]: Acid resistance (half-life period). Format: physicochemical. As to the method: (§1) All compounds of this group were prepared in the form of sodium salts. Bactericidal activity, degree of hydrolysis with staphylococc penicillinase and acid resistance of the penicillins were determined.
Series [3] concerns Prot.vulgaris. The series is described as follows: Minimal bacteriostatic concentration. Format: cell-based. As to conditions: Proteus vulgaris, sodium salts. The protocol:
as §1

The subject of series [4] is Sh.dysenteriae Flexneri. The series is described as follows: Minimal bacteriostatic concentration. The format is cell-based. As to conditions: Shigella dysenteriae, read-out: Minimal Bacteriostatic Concentration. The protocol: as §1
Series [5] has as its system Myco smegmatis. The series is described as follows: Minimal bacteriostatic concentration. Format: cell-based. The settings on record: sodium salts. The protocol: as §1
Series [6] deals with B.Subtitis ATCC6633. Description: Minimal bacteriostatic concentration. The format is cell-based. The settings on record: sodium salts. As to the method: as §1
The subject of series [7] is E.typhi. The series is described as follows: Minimal bacteriostatic concentration. Format: cell-based. The settings on record: read-out: Minimal Bacteriostatic Concentration. The protocol:
as §1

Series [8] concerns Ps.aeruginosa. Description: Minimal bacteriostatic concentration. Format: cell-based. As to conditions: Pseudomonas aeruginosa, sodium salts. The protocol:
as §1

Series [9] deals with E.coli O-55. The series is described as follows: Minimal bacteriostatic concentration. Format: cell-based. As to conditions: Escherichia coli. As to the method: as §1
The subject of series [10] is Staph. aureus 209p (adapted to benzylpenicillin). The series is described as follows: Minimal bacteriostatic concentration. The settings on record: Staphylococcus aureus, read-out: Minimal Bacteriostatic Concentration. The format is cell-based. As to the method: as §1
The subject of series [11] is Staph. albus. Description: Minimal bacteriostatic concentration. Format: cell-based. As to conditions: sodium salts. As to the method: as §1
Series [12] deals with Staph. aureus 209p. The series is described as follows: Minimal bacteriostatic concentration. The format is cell-based. The settings on record: Staphylococcus aureus, sodium salts. As to the method:
as §1

Series [13] deals with Vibrion Metschnicoff. Description: Minimal bacteriostatic concentration. The format is cell-based. As to conditions: read-out: Minimal Bacteriostatic Concentration. As to the method:
as §1

In series [14] the test system is Strept. pyrogenes. The series is described as follows: Minimal bacteriostatic concentration. The format is cell-based. The settings on record: sodium salts. As to the method:
as §1

Series [15] concerns the target T1, staphylococc penicillinase. Description: Hydrolysis/inactivation by staphylococc penicillinase. The format is biochemical. The settings on record: for Quantity of inactivated units of compounds under the action of 1 unit of staphylococc penicillinase: Table 5. The protocol: as §1
The substitution of propoxy radical for iso-radical in this position is not accompanied by areduction of penicillin stability against penicillinase which is not observed in the orto- and para-positions. During the subsequent hours of inactivation the rate of hydrolysis of penicillins slightly increases. However, even when observed in dynamics, their stability against penicillianase still persists during 4-hour-inactivation.

The nature of series [16]: in vivo. As to conditions: mouse, iv.
Setting [17] is: acid ph 1.3, Temperature 37° C, pH 1.3, Table 1, cyclopentyl series, read-out: τ1/2 half-life period (acid resistance).
[18] abbreviates: Vibrion Metschnicoff, sodium salts.
Where [19] appears, read: O55, E.coli O-55, sodium salts, read-out: Minimal Bacteriostatic Concentration.

T1 sequence (P00807 25-281): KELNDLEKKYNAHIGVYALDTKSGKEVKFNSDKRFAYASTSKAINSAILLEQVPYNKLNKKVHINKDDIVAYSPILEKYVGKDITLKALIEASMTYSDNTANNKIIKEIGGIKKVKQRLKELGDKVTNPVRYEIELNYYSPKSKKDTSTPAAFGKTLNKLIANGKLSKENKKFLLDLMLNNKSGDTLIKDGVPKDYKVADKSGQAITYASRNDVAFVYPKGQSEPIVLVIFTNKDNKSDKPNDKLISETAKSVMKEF

On to `COc1cccc(OC)c1C(=O)N[C@@H]1C(=O)N2[C@@H]1SC(C)(C)[C@@H]2C(=O)O` [methycillin], for which the “penicillinase resistance (background statement)” value in series [1] is “penicillinase resistant”.

Take `CCCOc1cccc(C2(C(=O)NC3C(=O)N4C3SC(C)(C)C4C(=O)O)CCCC2)c1` (centres unmarked) [Compound IX (Table 1), 1-(m-propoxyphenyl)Cyclopentyl-1-Penicillin]: the half-life in series [2] (setting [17]) is 222 min. The MIC in series [3] is 125 µg/mL; in series [4], 62.5 µg/mL (≈ 140 µM); in series [5] it was more than 500 µg/mL; in series [6] it was 0.9 µg/mL; in [7] it was 15.6 µg/mL (≈ 34.9 µM); in series [8], more than 500 µg/mL. Also, the MIC is 250 µg/mL (≈ 560 µM) in series [9] (O55, read-out: Minimal Bacteriostatic Concentration); more than 500 µg/mL in [10]; 0.19 µg/mL in series [11]; 0.39 µg/mL in series [12]; 3.9 µg/mL in series [13] (setting [18]); 0.39 µg/mL in series [14]. Moreover, the “Quantity of inactivated units of compounds under the action of 1 unit of staphylococc penicillinase” value (from here on “Quantity”) in [15] is listed as 10.6 units. Besides, the MTD in series [16] turned out to be 1500 mg/kg.

Take `CC(C)Oc1ccccc1C1(C(=O)NC2C(=O)N3C2SC(C)(C)C3C(=O)O)CCCC1` (centres unmarked) [Compound V (Table 1)]: in series [2] (setting [17]), the half-life amounted to 10.3 min. Moreover, the MIC is 500 µg/mL in [3]; 250 µg/mL (≈ 560 µM) in series [4]; more than 500 µg/mL in series [5]; 7.8 µg/mL in [6]; 125 µg/mL (≈ 280 µM) in [7]; more than 500 µg/mL in [8]. Besides, the MIC in [9] (setting [19]) was 500 µg/mL; in series [10], more than 500 µg/mL; in [11] it was 0.39 µg/mL; in series [12], 0.39 µg/mL; in series [13] (setting [18]) it was 0.9 µg/mL; in series [14] it was 0.78 µg/mL. Further, the “Quantity” value in [15] was 12.0 units. For the same molecule, in series [16], the MTD fell in the range of 1000 to 1500 mg/kg.

For the molecule `CC1(C)SC2C(NC(=O)C3(c4ccccc4)CCCC3)C(=O)N2C1C(=O)O` (centres unmarked) [Compound I (Table 1), 1-Phenylcyclopentyl-1-Penicillin], the half-life in series [2] (acid ph 1.3, pH 1.3, under conditions of our experiments, read-out: half-life period) was 26 min. Also, the MIC in series [3] is 250 µg/mL; in series [4], 125 µg/mL (≈ 322 µM); in series [5], more than 500 µg/mL; in series [6], 0.09 µg/mL; in series [7], 62.5 µg/mL (≈ 161 µM); in series [8], more than 500 µg/mL. For the same molecule, the MIC is 500 µg/mL in [9] (setting [19]); more than 500 µg/mL in series [10]; 0.048 µg/mL in series [11]; 0.048 µg/mL in [12]; 0.24 µg/mL (≈ 0.618 µM) in series [13]; 0.012 µg/mL in series [14]. The “Quantity” value in [15] was 0 units. The molecule also yielded a stability against penicillinase in series [15] (during the first hour after inactivation, 60 min) of 100%. Moreover, in series [16], the MTD was 500 mg/kg.

Take `CCOc1ccccc1C1(C(=O)NC2C(=O)N3C2SC(C)(C)C3C(=O)O)CCCC1` (centres unmarked) [Compound III (Table 1)]: the half-life in [2] (setting [17]) came to 102 min. In addition, the MIC in [3] is 500 µg/mL; in [4], 125 µg/mL (≈ 289 µM); in [5] it was more than 500 µg/mL; in [6], 7.8 µg/mL; in series [7], 62.5 µg/mL (≈ 144 µM); in series [8], more than 500 µg/mL. Moreover, the MIC in [9] (setting [19]) was 500 µg/mL; in series [10], more than 500 µg/mL; in series [11] it was 0.39 µg/mL; in [12], 0.78 µg/mL; in series [13] (setting [18]) it was 0.9 µg/mL; in [14], 0.78 µg/mL. Moreover, the “Quantity” value in series [15] worked out at 20.5 units. In [16], this molecule had an MTD of 1000 mg/kg.

Take `CCCOc1ccccc1C1(C(=O)NC2C(=O)N3C2SC(C)(C)C3C(=O)O)CCCC1` (centres unmarked) [Compound IV (Table 1)]: in series [2] (setting [17]), the half-life turned out to be 14.9 min. The MIC in series [3] was 500 µg/mL; in [4], 125 µg/mL (≈ 280 µM); in series [5], more than 500 µg/mL; in series [6], 15.6 µg/mL; in [7], 62.5 µg/mL (≈ 140 µM); in series [8] it was more than 500 µg/mL. Besides, the MIC in [9] (setting [19]) was more than 125 µg/mL; in series [10], more than 500 µg/mL; in series [11], 0.39 µg/mL; in series [12], 0.19 µg/mL; in series [13] (setting [18]) it was 0.9 µg/mL; in [14], 0.39 µg/mL. The “Quantity” value in series [15] is 20.45 units. In series [16], the MTD amounted to 1500 mg/kg.
